The values that follow are results of earlier work, collected in patent publication US20120093928A1, “ORAL METAXALONE COMPOSITIONS” (RANBAXY LABORATORIES LIMITED, priority 2007, published 2012).

As to `Cc1cc(C)cc(OCC2CNC(=O)O2)c1` (centres unmarked) [metaxalone, 5-[(3,5-dimethyphenoxy)methyl]-2-oxazolidinone], the plasma half-life (in vivo) was 2 to 3 h. The “time to mean peak plasma concentrations” value (oral, single 800 mg dosage) was 2 h.
